Results from patent publication US6696069B2, “Skin care cosmetic compositions containing phosphates and/or sulfates of branched alcohols and/or ethoxylates thereof” (Unilever Home & Personal Care USA, division of Conopco, Inc., priority 2000, dated 2004).
“And” between values parts separate entries of the source, which are not always exact repeats. Equal values may be shown once. Where a name gives a salt, the structure may show the parent alone. Marks after values point to notes of the source that are not given here.

Experiments:
human sebocytes = test: Inhibition of sebocyte lipogenesis (14C-acetate incorporation); type: cell-based; conditions: for lipogenesis inhibition (result in words): in combination with retinol, in comparison to either alone
[1] = test system: Neonatal human dermal fibroblasts; test: Production of procollagen I by fibroblasts (slot blot, densitometry); type: cell-based; conditions: for Average OD (optical density) Reading / Fold increase Over Control / % Increase (+) or % decrease (−−) over control: procollagen I; for collagen synthesis by fibroblasts (result in words): text summary of Tables 1 and 5; for % Increase (+) or % decrease (−−) over control: positive control, concentration not given
Procedure: This example measured production of procollagen I by fibroblasts in response to treatment with various straight chain and branched alcohols alone.
Procollagen I Staining Protocol for Slot Blot
Neonatal human dermal fibroblasts were purchased from Clonetics Corp., San Diego, Calif. All materials for cell culture were purchased from Life Technologies, NY (and used in passages 5-10). Cells were seeded at a density of approximately 10,000/well in the inner 48 wells of a 96-well plate in a medium containing DMEM (Dulbecco's Modified Eagle's Medium), high-glucose supplemented with 2 mM L-glutamine, 10% fetal bovine serum, and antibiotic and antimycotic solutions. Cells were then grown to confluence for 2 days. At confluence, the medium was removed and cells were washed with serum-free DMEM, and each well dosed with 200 μl of a solution of a test compound in serum-free DMEM. Each dosing was replicated in a total of six wells. […] After 24 hours, the test compound solution or the control solution was removed and cells redosed with 100 μl of a solution of a test compound in serum-free DMEM.
Nitrocellulose membrane and 3 sheets of filter paper were soaked in TRIS buffered saline (TBS, pH 7.3.). BioRad slot blot apparatus (BioRad Labs, CA) was set up with 3 sheets filter paper on bottom, membrane on top, and tightened. […] TBS was added per well. Vacuum was used to suck TBS through membrane. The test compound solution or control was vortexed, then 100 μl was loaded per well and gravity filtered. Procollagen from the test solution was bound to the membrane at this point in the procedure. Membrane was removed from the apparatus, excess cut off, and bottom right corner notched for orientation. The membrane was placed in blocking solution (5% milk powder in Dulbecco's phosphate buffered saline) overnight at 4° C., with shaking. The membrane was then incubated for 1.5 hrs at room temperature with 1.5 mL Rat Anti-Human Procollagen Amino-Terminal Ab (Chemicon MAB1912) in TBS with 0.1% BSA (Bovine Serum Albumin) (ratio of antibody to buffer/BSA was 1:100) in a sealed bag with shaking. The membrane was then removed; washed 3 times for 5 minutes in TBS/0.1% Tween. The membrane was then incubated for 1 hour at room temperature in 2 mL of Biotinylated Anti-Rat Peroxidase-Conjugated Ab (Vector Labs) in TBS with 0.1% BSA (ratio of antibody to buffer/BSA was 1:1000) in a sealed bag with shaking. The membrane was then stained using the following solution:
12.5 mg 3-amino 9-ethyl carbazole (Sigma)
3.125 (approximately) mL DMF (N,N-dimethylformamide, from Sigma)
The membrane was stained until color developed and the reaction stopped with 2 washes for 10 minutes in tap water. The blot was scanned on a Bio-Rad GS700 Image Analysis densitometer. Percent change from control was calculated from densitometer readings as follows: [(Reading for test compound−Reading for control)/Reading for control]*100. Control has a reading of 100%. Statistical significance (p value) was calculated using student's t-test.
TGF-B is a positive control, ensuring the integrity of the assay: transforming growth factor beta is known to increase procollagen I in fibroblasts.
This example measured production of procollagen I by fibroblasts in response to treatment with various test compounds.
The experiment was conducted as described in Example 1 above. Fold increase was calculated as a ratio of densitometer reading for cells treated with a test compound over control.

[2] = lipogenesis, 1 μM + 1 μM Retinol
[3] = lipogenesis, 1 μM + 10 μM Retinol
[4] = lipogenesis, 10 μM + 1 μM Retinol
[5] = lipogenesis, 10 μM + 10 μM Retinol

In the case of `CC(C)CCCCCCCCCCOS(=O)(=O)O` [Iso-tridecyl Sulfate, sodium salt], the activity at 33.1 µM (human sebocytes; Homo sapiens, lipogenesis, 33.1 μM, alone, read-out: % of Control) is reported as 54.9%, the activity at 165.5 µM (human sebocytes; Homo sapiens, lipogenesis, 165.5 μM, alone, read-out: % of Control) is reported as 14% and the activity at 331 µM (human sebocytes; Homo sapiens, lipogenesis, 331 μM, alone, read-out: % of Control) is reported as 5.5%.
For `O=S1(=O)OC(c2ccc(O)cc2)(c2ccc(O)cc2)c2ccccc21` [Phenol Red, reference compound], the activity at 28 µM (human sebocytes; Homo sapiens, lipogenesis, 28 μM, alone, read-out: % of Control) was 91.9%, the activity at 280 µM (human sebocytes; Homo sapiens, lipogenesis, 280 μM, alone, read-out: % of Control) was 58.1% and the “% of Control” value (human sebocytes; lipogenesis, 28 μM, alone) was 92.0% and 79.3% and 84.0%. The “% of Control” value (human sebocytes; lipogenesis, 280 μM, alone) was 61.7* % and 70.6* %.
For `CC1=C(/C=C/C(C)=C/C=C/C(C)=C/CO)C(C)(C)CCC1` [Retinol, reference compound], the activity at 1 µM (human sebocytes; Homo sapiens, lipogenesis, 1 μM, alone, read-out: % of Control) was 91.8%, the activity at 10 µM (human sebocytes; Homo sapiens, lipogenesis, 10 μM, alone, read-out: % of Control) was 106% and the “% of Control” value (human sebocytes; lipogenesis, 1 μM, alone) was 97.4% and 93.2% and 91.5%. The “% of Control” value (human sebocytes; lipogenesis, 10 μM, alone) was 106.0% and 101.8%.
For Iso-tridecyl Phosphate, the “Average OD (optical density) Reading” value ([1]; Plate 2, 0.0001%) was 2.170, the “Fold increase Over Control” value ([1]; Plate 2, 0.0001%) was 2.17 and the “Average OD (optical density) Reading” value ([1]; Plate 2, 0.001%) was 1.460. For the same molecule, the “Fold increase Over Control” value ([1]; Plate 2, 0.001%) was 1.460, the “collagen synthesis by fibroblasts (result in words)” value [1] was “increased collagen production” and the “lipogenesis inhibition (result in words)” value (human sebocytes) was “enhanced inhibition of lipogenisis production”. For the same molecule, the “% of Control” value (human sebocytes; [2]) was 78.1* %, the “% of Control” value (human sebocytes; [3]) was 71.6* % and the “% of Control” value (human sebocytes; [4]) was 70.6* %. The “% of Control” value (human sebocytes; [5]) was 66.9* %, the “% of Control” value (human sebocytes; lipogenesis, 100 μM + 1 μM Retinol) was 74.1* % and the “% of Control” value (human sebocytes; lipogenesis, 100 μM + 10 μM Retinol) was 78.2%.
In the case of Iso-tridecyl Phosphate (Disodium salt), the “% of Control” value (human sebocytes; lipogenesis, 1 μM, alone) is reported as 90.7%, the “% of Control” value (human sebocytes; lipogenesis, 10 μM, alone) is reported as 88.4% and the “% of Control” value (human sebocytes; lipogenesis, 100 μM, alone) is reported as 88.3%.
In the case of Iso-tridecyl Sulfate, the “Average OD (optical density) Reading” value ([1]; Plate 1, 0.0001%) is reported as 1.000, the “Fold increase Over Control” value ([1]; Plate 1, 0.0001%) is reported as 1.28 and the “Average OD (optical density) Reading” value ([1]; Plate 1, 0.001%) is reported as 1.223. For the same molecule, the “Fold increase Over Control” value ([1]; Plate 1, 0.001%) was 1.56, the “collagen synthesis by fibroblasts (result in words)” value [1] was “increased collagen production” and the “lipogenesis (result in words)” value (human sebocytes; alone or as a salt, Table 2) was “reduced lipogenesis production”. The “lipogenesis inhibition (result in words)” value (human sebocytes) was “improved lipogenesis inhibition”, the “% of Control” value (human sebocytes; [2]) was 70.6* % and the “% of Control” value (human sebocytes; [3]) was 64.4* %. The “% of Control” value (human sebocytes; lipogenesis, 1 μM, alone) was 72.5* %, the “% of Control” value (human sebocytes; [4]) was 56.1* % and the “% of Control” value (human sebocytes; [5]) was 47.5* %. The “% of Control” value (human sebocytes; lipogenesis, 10 μM, alone) was 58.2* %, the “% of Control” value (human sebocytes; lipogenesis, 35.6 μM, alone) was 63.5% and the “% of Control” value (human sebocytes; lipogenesis, 178 μM, alone) was 18.1* %. The “% of Control” value (human sebocytes; lipogenesis, 356 μM, alone) was 7.4* %.
In the case of TGF-B [reference compound], the “% Increase (+) or % decrease (−−) over control” value ([1]; Experiment 1) is reported as “+50* %”, the “% Increase (+) or % decrease (−−) over control” value ([1]; Experiment 2) is reported as “+140* %” and the “Average OD (optical density) Reading” value ([1]; Plate 1, 0.001%) is reported as 1.348. The “Fold increase Over Control” value ([1]; Plate 1, 0.001%) was 1.72, the “Average OD (optical density) Reading” value ([1]; Plate 2, 0.001%) was 1.653 and the “Fold increase Over Control” value ([1]; Plate 2, 0.001%) was 1.65.
